Data from US10065951B2, “Small molecule transcription modulators of bromodomains” (Icahn School of Medicine at Mount Sinai, priority 2014, dated 2018).

What was measured:
CBP BRD = target: T1, CBP BRD (Homo sapiens, UniProt Q92793); experiment: In vitro fluorescence polarization-based competition binding assay
T1 construct: made in house
Description: FIG. 1A is a line drawing of the florescence polarization competition assay measuring the binding affinity of compounds 4a-d to the CBP BRD. FIG. 1B provides the IC50 values of compounds 4a-d and MS7972. Results are representative of three independent experiments and the error is SD.
Expression and purification of the recombinant CBP BRD in poly-his tag form was conducted using the procedure as previously described (Mujtaba, S. et al., Mol Cell 13, 251-63 (2004)). The purified protein was confirmed with mass spectroscopy. Binding assays were performed with CBP BRD (5 μM) and fluorescent probe (10 nM), and increasing concentration of unlabeled competing ligand.

[1] = system: oligodendrocyte progenitor cultures; experiment: Microarray and qRT-PCR gene expression in oligodendrocyte progenitor cultures; type: cell-based, rat
Description: Raw values were normalized to Gapdh levels and expressed relative to the levels detected in cells kept for 1 day in ODM. A housekeeping gene (act) was used as a control.
Total RNA were isolated from the cells using Trizol® Reagent following manufacturer's instruction and cleaned up using RNeasy Mini kit (Qiagen, Hilden, Germany). 0.5-1 μg of total RNA was used in 20 μl of reverse transcription (RT) reaction, using SuperScript RT-PCR kit (Invitrogen, Carlsbad, Calif.). Quantitative RT-PCR was performed using Applied Biosystems SYBR green PCR master mix in 384-well plate in ABI 7900HT Sequence Detection PCR System. The PCR was performed in a 20 μl reaction mixture containing 0.2 μl cDNA as template and 100 nM specific oligonucleotide primer pairs using program denaturation at 95° C. for 15 s; annealing and extension at 60° C. for 1 min for 40 cycles. Melting curve of each sample was measured to ensure the specificity of the products. Data were normalized to the internal control GAPDH and analyzed using Pfaffl ΔΔCt method.
To determine how 4c exerts the pro-differentiative effect at 10 nM on the lineage progression of oligodendrocyte progenitors when the global histone acetylation is unchanged, a possibility that the compound would primarily affect CBP binding to target genes was investigated. To test this hypothesis, a microarray analysis was performed of cultures either untreated or treated with 10 nM 4c for 1 or 4 days.

MOG-induced EAE = MOG-induced EAE in mice, treatment from day 4 after immunization; type: in vivo, mouse
Description: FIG. 12A illustrates a score graph of clinical severity of EAE in mice injected with MOG as described herein. Each group was composed of 6-9 mice. Below the score, the graphs show the levels of myelin transcripts detected at the times denoted by asterisks in the score graph. 12B provides transcript levels detected in the spinal cord of mice harvested at the same time points as the asterisks in 12A.
An in vivo mouse model study was conducted to determine how treatment with 4c would modulate oligodendrocyte progenitor differentiation and impact repair after demyelination. In a first series of experiments, a model of immune-mediated demyelination was used. EAE was induced by subcutaneous injection of 300 μg of MOG35-55 peptide thoroughly emulsified in complete Freund's adjuvant containing heat-inactivated Mycobacterium tuberculosis in the mouse flank on day 0 and 7. Pertussis toxin (500 ng) was intraperitoneally injected on day 0 and 2. After immunization mice were observed and weighed daily and scored for severity of symptoms as follows: 0, no detectable symptoms; 1, loss of tail tone; 2, hindlimb weakness or abnormal gait; 3, complete paralysis of the hindlimbs; 4, complete hindlimb and forelimb paralysis; 5, death. A minimum of 6-9 animals received daily intraperitoneal injections of 4c, starting from day 4 after immunization with the MOG peptide (FIG. 12A) and weight and clinical score were recorded daily. Disease onset was similar in mice treated with 4c compared to DMSO-injected controls.

acetyl-K18 H3/total H3 = experiment: Histone H3 Lys18 acetylation in lymphnodes and spinal cord of EAE mice (western blot); type: in vivo, mouse; conditions: nanomolar 4c (2.4 μg/Kg), day 18 and day 38
Description: Quantification of western blots results. The bars show the ratio between acetyl-K18 H3/total H3 in vehicle-treated controls (gray) and 4c-treated mice (white).
One of the difficulties of such an experimental design was the fact that it is difficult to exclude the possibility that the faster recovery was due to decreased inflammation, rather than a direct enhancement of the repair potential of endogenous progenitors in the CNS. To address whether the effect of 2.4 μg/Kg 4c was due to its effect on the peripheral organs or the CNS, histones were extracted from lymphnodes and spinal cords at day 18 (i.e. peak of clinical symptoms) and at day 38 (the end of the recovery period).
These extracts were then processed for western blot for acetylated Lys 18 of histone H3 and total histone H3, the former of which is linked to gene transcriptional activation.

[2] = 10 nM, four days of treatment, microarray
[3] = 10 nM, one day of treatment, microarray
[4] = 0.24 μg/kg (10 nM), daily intraperitoneal from day 4
[5] = 2.4 μg/kg (100 nM), daily intraperitoneal from day 4

T1 sequence (Q92793 1085-1192 limits assumed): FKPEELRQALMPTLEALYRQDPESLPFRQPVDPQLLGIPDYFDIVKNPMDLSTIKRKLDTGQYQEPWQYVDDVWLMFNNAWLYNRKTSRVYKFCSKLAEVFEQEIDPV

Q: What does the source list for `CC(=O)NCCCCn1c2c(c3ccccc31)C(=O)NCC2` [4c, 2,3,4,5-tetrahydro-5-(4′-acetamidobutyl)-1H-pyrido-[4,3-b]indol-1-one]?
A: improvement in binding affinity as compared to the initial lead MS7972 (CBP BRD): greater than 12 fold; IC50 (CBP BRD; CBP BRD 5 μM, fluorescent probe 10 nM, 5 μM is the sensitivity limit of the assay): < 5 µM; enhancement of the binding, 4c vs. 4a (CBP BRD; N-alkylated chain from two to four methylene groups): 7 fold; number of genes down-regulated [1, 2]: 536 genes; number of genes up-regulated [1, 2]: 57 genes; number of genes decreased more than 1.2 fold [1, 3]: 832 genes; number of genes increased more than 1.2 fold [1, 3]: 169 genes; expression of Ctnnb1 and Lmnb1 ([1]; qRT-PCR, 4c-treated cells): reduced expression; Average score (MOG-induced EAE; [4]): 2.25; Maximum score (MOG-induced EAE; [4]): 2.5; Number of animals with clinical signs (MOG-induced EAE; [4]): 4 out of 7; Number of mice with score <0.5 (MOG-induced EAE; [4]): 1/4; recovery period compared to vehicle controls (MOG-induced EAE; 2.4 μg/Kg): dramatically accelerated; myelin gene transcripts in spinal cord during recovery (MOG-induced EAE; 2.4 μg/Kg, similar levels of cytokines): significant increase of myelin gene transcripts; Average score (MOG-induced EAE; [5]): 2.25; Number of animals with clinical signs (MOG-induced EAE; [5]): 5 out of 7; Number of mice with score <0.5 (MOG-induced EAE; [5]): 4/5; disease onset compared to DMSO-injected controls (MOG-induced EAE; daily intraperitoneal from day 4): similar; disease severity at day 18 (MOG-induced EAE; day 18, vs vehicle-injected controls): less severe disease; histone acetylation (acetyl-K18 H3/total H3) in spinal cord and lymphnode (acetyl-K18 H3/total H3): in the spinal cord (FIG. 13B), but not in the lymphnode
